Test system: PBMC (polyclonal gluten-specific T cells) of paediatric and adult CD patients
Assay: IFN-γ ELISpot of PBMC after 3 day oral wheat challenge (SFU, % of maximal peptide response, dominance scores, EC50; Examples 5-6)
Format: cell-based, human
Conditions: for IFN-γ ELISpot response: after oral wheat challenge
[1] = patient A, 11-17 yrs, cut-off 10 SFU
[2] = patient E, H, 11-17 yrs, cut-off 10 SFU
[3] = patient F, 11-17 yrs, cut-off 10 SFU
[4] = patient G, 11-17 yrs, cut-off 10 SFU
[5] = patient H (HLA-DQ2.5 homozygote), 3-5yrs, cut-off 10 SFU
[6] = patient H, 11-17 yrs, cut-off 10 SFU
[7] = patient ID not given, 11-17 yrs, cut-off 10 SFU
[8] = patient N, 3-5yrs, cut-off 10 SFU
[9] = patient P, 11-17 yrs, cut-off 21.6 SFU
[10] = patient Q, 11-17 yrs, cut-off 10 SFU
[11] = patient U, H, 11-17 yrs, cut-off 10 SFU
[12] = patient V, 6-10 yrs, cut-off 10 SFU
[13] = patient Y, 6-10 yrs, cut-off 10 SFU
[14] = patient eleven, 6-10 yrs, cut-off 10 SFU
[15] = patient four, 3-5yrs, cut-off 10 SFU
[16] = patient seven, 6-10 yrs, cut-off 10.5 SFU
[17] = patient ten, 3-5yrs, cut-off 10 SFU
[18] = patient three, 6-10 yrs, cut-off 10.5 SFU
[19] = patient twelve, 11-17 yrs, cut-off 10 SFU
[20] = patient two, 3-5yrs, cut-off 10 SFU

| Sequence | IFN-γ ELISpot response [1] [SFU] | IFN-γ ELISpot response [2] [SFU] | Significant response as percentage of maximal peptide SFU (patient E, max peptide 224 SFU) | IFN-γ ELISpot response [3] [SFU] | IFN-γ ELISpot response [4] [SFU] | IFN-γ ELISpot response [5] [SFU] | IFN-γ ELISpot response [6] [SFU] | IFN-γ ELISpot response [7] [SFU] | Significant response as percentage of maximal peptide SFU (patient II, max peptide 15 SFU) | IFN-γ ELISpot response [8] [SFU] | IFN-γ ELISpot response [9] [SFU] | IFN-γ ELISpot response [10] [SFU] | Significant response as percentage of maximal peptide SFU (patient Q, max peptide 97 SFU) | IFN-γ ELISpot response [11] [SFU] | IFN-γ ELISpot response [12] [SFU] | IFN-γ ELISpot response [13] [SFU] | IFN-γ ELISpot response [14] [SFU] | IFN-γ ELISpot response [15] [SFU] | IFN-γ ELISpot response [16] [SFU] | IFN-γ ELISpot response [17] [SFU] | also measured |
| --- | --- | --- | --- | --- | --- | --- | --- | --- | --- | --- | --- | --- | --- | --- | --- | --- | --- | --- | --- | --- | --- |
| LQPFPQPELPYSQP | 3 | 104 | ′′′ (41-70% = ′′′) | 81 | 5 | 36 | 15 | 53 | + (>70% = +) | 3 | 37 | 29 | ′′ (21-40% = ′′) | 25 | 19 | 12 | 39 | 22 | 6 | 11 | Significant response as percentage of maximal peptide SFU (patient F, max peptide 178 SFU): ′′′ (41-70% = ′′′); Significant response as percentage of maximal peptide SFU (patient H, max peptide 17 SFU): + (>70% = +); Significant response as percentage of maximal peptide SFU (patient ID not given, max peptide 95 SFU): ′′′ (41-70% = ′′′); Significant response as percentage of maximal peptide SFU (patient J, max peptide 196 SFU): ′′ (21-40% = ′′); Significant response as percentage of maximal peptide SFU (patient M, max peptide 48 SFU): + (>70% = +); Significant response as percentage of maximal peptide SFU (patient P, max peptide 64 SFU): ′′′ (41-70% = ′′′); Significant response as percentage of maximal peptide SFU (patient U, max peptide 81 SFU): ′′ (21-40% = ′′); Significant response as percentage of maximal peptide SFU (patient V, max peptide 35 SFU): ′′′ (41-70% = ′′′); Significant response as percentage of maximal peptide SFU (patient Y, max peptide 16 SFU): + (>70% = +); Significant response as percentage of maximal peptide SFU (patient eleven, max peptide 57 SFU): ′′′ (41-70% = ′′′); Significant response as percentage of maximal peptide SFU (patient five, max peptide 48 SFU): ′′′ (41-70% = ′′′); Significant response as percentage of maximal peptide SFU (patient four, max peptide 44 SFU): ′′′ (41-70% = ′′′); Significant response as percentage of maximal peptide SFU (patient ten, max peptide 14.5 SFU): + (>70% = +); IFN-γ ELISpot response [18]: 71 SFU; IFN-γ ELISpot response [19]: 6 SFU; IFN-γ ELISpot response [20]: 13 SFU; Significant response as percentage of maximal peptide SFU (patient two, max peptide 60 SFU): ′ (11-20% = ′) |
| FPQPQQQFPQPQQ | 2 | 12 | (6-10% = ^) | 4 | 1 | 6 | 5 | 1 | + (>70% = +) | 1 | 4 | 10 | ′ (11-20% = ′) | 4 | 2 | 6 | 1 | 5 | 2 | 4 | IFN-γ ELISpot response [18]: 1 SFU; IFN-γ ELISpot response [19]: 5 SFU; IFN-γ ELISpot response [20]: 0 SFU |

— patent US20170232083A1, “METHODS OF DIAGNOSIS AND TREATMENT OF CELIAC DISEASE IN CHILDREN” (priority 2014, published 2017)
